Assay results: article PMC6934184, “Selective DNA-PKcs inhibition extends the therapeutic index of localized radiotherapy and chemotherapy” (The Journal of Clinical Investigation, 2019)

Molecular target: T1, CDK9 (Inactive) (Homo sapiens, UniProt P50750)
T1 construct: purchased Thermo Fisher Scientific (Life Technologies) SelectScreen
Test: SelectScreen LanthaScreen
Format: binding
Conditions: read-out: % displacement
Procedure, shortened: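 SelectScreen broad panel; activity (Z'LYTE, Adapta) plus binding formats. ATP: Km app for CSF1R Z'LYTE; 10 for CAMK1 Adapta. Readout = % per kinase.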

T1 sequence (P50750 whole entry): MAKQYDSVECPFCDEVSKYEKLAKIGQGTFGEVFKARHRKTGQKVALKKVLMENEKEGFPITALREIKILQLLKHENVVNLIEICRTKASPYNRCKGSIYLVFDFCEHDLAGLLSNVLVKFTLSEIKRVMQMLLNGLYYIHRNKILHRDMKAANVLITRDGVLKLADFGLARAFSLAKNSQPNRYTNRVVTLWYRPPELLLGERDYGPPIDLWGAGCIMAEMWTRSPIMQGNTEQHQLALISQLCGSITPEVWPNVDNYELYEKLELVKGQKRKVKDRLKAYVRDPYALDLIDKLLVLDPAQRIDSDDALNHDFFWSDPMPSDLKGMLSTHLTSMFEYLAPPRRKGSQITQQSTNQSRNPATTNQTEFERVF

`CN(C(=O)CN1CCOCC1)c1ccc2sc3c(-c4cccc5c(=O)cc(N6CC7CCC(C6)O7)oc45)cccc3c2c1` [NU5455] showed an inhibition at 1 µM of 9%.
